Measurements taken from article PMC8910920 (International Journal of Molecular Sciences, 2022).

Columns and labels:
[1] = system: CCI rats, heat hypersensitivity; assay: CCI model of neuropathic pain, heat sensitivity (Hargreaves test); type: in vivo, rat
Experimental: The CCI model of neuropathic pain allowed the evaluation of the effect RGM8-51 on cold, heat and mechanical sensitivity, as assayed by the acetone test, the Hargreaves test, and the automatized von Frey test, respectively. RGM8-51 was applied either locally (i.pl.; 10 µg) in the affected paw or systemically (intraperitoneally, i.p., 10 and 30 mg/kg) and the effect evaluated before (Baseline) and after CCI surgery. The nocifensive response after administration of RGM8-51 was compared with that of vehicle, while non-operated animals and the uninjured (contralateral) hind paw in CCI animals were used as controls.
Adult male Sprague-Dawley rats (weighing 200–220 g/6–8 weeks old) were used in these experiments. All experimental procedures were conducted according to the animal welfare guidelines of the European Community (European Directive 2010/63/UE) to minimize animal suffering and were approved by Universidad Complutense de Madrid and Comunidad de Madrid ethical committees on animal experimentation (PROEX 207.8/21). […]
For behavioral testing, rats were placed in individual methacrylate boxes with a wire mesh floor, and after a period of 15 min acclimatization, the cold, heat and mechanical sensitivity of the ipsilateral and contralateral paws was determined. Cold sensitivity was assessed with the acetone test. In total, 100 µL acetone were locally applied to the plantar surface of the hind paw and the duration of the subsequent nocifensive response (licking, brushing, and flinching of the paw) was determined during 60 s. Acetone application and assessment were repeated 2 times with a 5 min interval and the sum of the two values was recorded. Heat sensitivity was determined with the Hargreaves test, which uses infrared light as a heat source, with a Hargreaves apparatus (Serie 8, Model 336, IITC Life Science, Woodland Hills, CA USA). The light beam was directed to the plantar surface of the hind paw and the time from the beginning of irradiation to the appearance of first paw withdrawal movement was measured (paw withdrawal latency). […]

[2] = system: CACO-2 cell monolayers; assay: Caco-2 permeability; type: in vitro ADME
Experimental: These studies were subcontracted to Eurofins-CEREP or Eurofins-PANLABS. Briefly, agonists and antagonist assays were performed in cell cultures overexpressing the corresponding channel (CHO: TRPV1 and TRPA1; HEK293: TRPV3 and ASIC3). In vitro pharmacology, cellular channel functional assays: the compound was prepared in assay buffer to the final concentration, 10 μM. The compound wells, reference agonist and background vehicle controls were prepared in DMSO at 0.3%. The reference agonist for each Ion Channel assayed was prepared in a similar manner to serve as the assay control. The reference agonist for each Ion Channel was included at Emax (the concentration where the reference agonist elicited a maximal response). The agonist assay was conducted on fluorimeter instruments where the test compound, vehicle controls, and reference agonist were added to the assay plate after a fluorescence baseline was established. The agonist assay was used to assess each compound’s ability to activate each Ion Channel assayed. For the antagonist assay, the compound was pre-incubated for five minutes at room temperature, and then challenged with the EC80 concentration of the reference agonist after establishment of a fluorescence baseline. Vehicle controls and EC80 concentration of reference agonist were added to appropriate wells. The antagonist assay was used to assess each compound’s ability to inhibit activation by the corresponding Ion Channel agonist. ASIC3 ionflux antagonist assay: all recordings were obtained from a holding potential of -60 mV. The compound addition sequence was as follows: one addition of pH5.5 buffer was added to establish the baseline response, the test concentration of compound was applied for 30 s, followed by the addition of pH5.5 of compound for 2 s. Binding assays were performed in CHO cell cultures overexpressing human CGRPR, CB2 and M2 receptors. RGM8-51 (10 μM) was tested, and reference compounds used as control agonists and antagonists are detailed in Table 2, footnote. Binding assay results are expressed as a percent of control specific binding. […] Aqueous solubility (μM) was determined by comparing the peak area of the principal peak in a calibration standard (200 μM) containing organic solvent (methanol/water, 60/40, v/v) with the peak area of the corresponding peak in a buffer sample. Partition coefficient: the total amount of compound was determined as the peak area of the principal peak in a calibration standard (100 μM) containing organic solvent (methanol/water, 60/40, v/v). The amount of compound in buffer was determined as the combined, volume-corrected, and weighted areas of the corresponding peaks in the aqueous phases of three organic-aqueous samples of different composition. An automated weighting system was used to ensure the preferred use of raw data from those samples with well quantifiable peak signals. The amount of compound in organic phase was calculated by subtraction. Subsequently, Log D was calculated as the Log10 of the amount of compound in the organic phase divided by the amount of compound in the aqueous phase. […] Permeability was measured in CACO-2 monolayers. Percentage of compounds in the receptors wells was measured using HPLC. […] In vitro metabolism was measured in human liver microsomes. […] The apparent intrinsic clearance (CLint, in μL/min/mg) was calculated from the half-life time.

## C[C@@H]1C(=O)N(C[C@H](Cc2ccccc2)N(Cc2ccccc2)Cc2ccccc2)[C@]1(Cc1ccccc1)C(=O)OC(C)(C)C [RGM8-51, 4(S)-Benzyl-3S-methyl-4-(tert-butoxy)carbonyl-1-[(2′S-dibenzylamino-3′-phenyl)prop-1′-yl]-2-oxoazetidine]
[1]; i.p. 10 and 30 mg/kg, dose-dependently
  heat hypersensitivity in CCI rats: effective in decreasing hypersensitivity to heat
[1]; i.pl. 10 µg
  heat hypersensitivity in CCI rats: did not influence the animal response to heat
[1]; rat, in vivo
  heat perception in non-operated animals (baseline) or uninjured hind paw: had no effect on heat perception
[2]
  permeation of CACO-2 cell monolayers: not able to permeate
[2]; CACO-2 cell monolayer
  Permeability B-A (%): 0%
[2]; CACO-2 cell monolayer, percentage of compound in the acceptor cell
  Permeability A-B (%): 0%
